Patent publication US20230331683A1, “INHIBITORS OF SPINSTER HOMOLOG 2 (SPNS2) FOR USE IN THERAPY” (University of Virginia Patent Foundation, priority 2020, published 2023)
Counter-ions that a name gives are not always drawn.

Molecular target: mouse SPNS2 (Mus musculus (Mouse), UniProt Q91VM4)
Test: S1P Transporter Assay (S1P release from whole cells expressing SPNS2)
Format: cell-based
Details: in vitro inhibition against SPNS2; HeLa cells expressing mouse SPNS2, S1P release into media after 18 hours; compounds as their pharmaceutical salts
Procedure: Transporter assays are vectorial and therefore require measurement of the transported analyte in different compartments. The S1P transporter SPNS2 only exports S1P, which obviates measuring uptake of S1P into transporter-expressing cells. Thus, transporter activity was determined by quantifying S1P release from whole cells expressing SPNS2. SPNS2 inhibitor potency was assessed using whole cell assays. HeLa cells expressing mouse SPNS2 were used to determine inhibitor potency (IC50). Cells were plated onto 12 well plates and assayed when the cell monolayers became confluent. Cell growth media (RPMI-1640 containing 10% fetal bovine serum) was replaced with 2 mL of serum-free media (RPMI-1640) containing fatty acid free bovine serum albumin (BSA) (0.2 % w/v) and supplemented with 4-deoxypyridoxine (DOP) (1 mM), NaF (2 mM), Na3VO4 (0.2 mM) to inhibit S1P degradation. Test articles (1 × 10-9 - 1 × 10^-4 M) were assayed in duplicate or triplicate. After 18 hours, media was collected, an internal recovery standard (0.005 mL of 5 × 10^-7 M deuterated (d7) S 1P in methanol) was added, the BSA was precipitated with trichloroacetic acid and the bound S1P extracted with methanol. S1P and S1P-d7 were measured by liquid chromatography mass spectrometry. Inhibitor potency at the human SPNS2 ortholog was determined by an analogous assay using U-937 cells, which endogenously express human SPNS2.

mouse SPNS2, sequence (Q91VM4 whole entry): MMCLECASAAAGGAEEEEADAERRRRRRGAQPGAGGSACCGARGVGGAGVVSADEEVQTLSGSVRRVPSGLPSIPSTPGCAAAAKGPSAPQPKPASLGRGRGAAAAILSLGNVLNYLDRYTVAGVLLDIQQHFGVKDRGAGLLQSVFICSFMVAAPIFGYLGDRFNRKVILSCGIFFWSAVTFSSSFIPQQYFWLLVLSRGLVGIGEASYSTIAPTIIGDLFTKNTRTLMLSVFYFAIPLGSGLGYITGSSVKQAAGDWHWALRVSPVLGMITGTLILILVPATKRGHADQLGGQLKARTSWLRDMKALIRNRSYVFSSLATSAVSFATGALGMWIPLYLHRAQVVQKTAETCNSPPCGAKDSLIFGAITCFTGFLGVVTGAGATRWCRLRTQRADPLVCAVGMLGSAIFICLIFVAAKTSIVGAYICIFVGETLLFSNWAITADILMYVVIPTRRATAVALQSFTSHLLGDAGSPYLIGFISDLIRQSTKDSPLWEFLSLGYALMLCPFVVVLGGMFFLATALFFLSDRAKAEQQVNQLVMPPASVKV

| Structure (SMILES) | IC50 |
| --- | --- |
| CCCCCCCCCCc1ccc(NC(=O)[C@@H]2CCCN(C(=N)N)C2)cc1 [Compound 4a, (R)carbamimidoyl-N-(4-decylphenyl)piperidine-3-carboxamide 2,2,2-trifluoroacetate] | ≤ 2 µM |
| CCCCCCCCCCc1ccc(NC(=O)C2CCNCC2)cc1 [Compound 2o, N-decylphenyl)piperidine-4-carboxamide Hydrochloride] | > 2 µM |
| CCCCCCCCCCc1ccc(NC(=O)C[C@H]2CCNC2)cc1 [Compound 2j, (R)-N-decylphenyl)-2-(pyrrolidin-3-yl)acetamide Hydrochloride] | ≤ 2 µM |
| CCCCCCCCCCc1ccc(NC(=O)C[C@@H]2CCNC2)cc1 [Compound 2i, (S)-N-decylphenyl)-2-(pyrrolidin-3-yl)acetamide Hydrochloride] | ≤ 2 µM |
| CCCCCCCCCCc1ccc(NC(=O)CCCN)cc1 [Compound 2c, 4-amino-N-(4-decylphenyl)butanamide Hydrochloride] | ≤ 2 µM |

The remaining lines, values ahead:

| IC50 | Structure (SMILES) |
| --- | --- |
| > 2 µM | CCCCCCCCCCc1cccc2nc(NCCCN)oc12 [Compound 13v, N^1-decylbenzo[d]oxazol-2-yl)propane-1,3-diamine hydrochloride] |
| > 2 µM | CCCCCCCCCCc1ccc(C(=O)NCCN)cc1 [Compound 26e, N-aminoethyl)-4-decylbenzamide Hydrochloride] |
| > 2 µM | CCCCCCCCCCc1cccc2oc(NCCCN)nc12 [Compound 13x, N^1-decylbenzo[d]oxazol-2-yl)propane-1,3-diamine hydrochloride] |
| ≤ 2 µM | CCCCCCCCCCc1ccc2nc(NC3CCNCC3)oc2c1 [Compound 13ab, 6-decyl-N-(piperidin-4-yl)benzo[d]oxazol-2-amine Hydrochloride] |
